The values that follow come from patent US20220098184A1, “SOLID DISPERSION FORMULATIONS OF AN FXR AGONIST” (Terms Pharmaceuticals, Inc., priority 2020, published 2022).

Data set [1] in a line: Solubility study in phosphate buffer (pH=6.8), agitated at 37° C., filtrate measured by UV-vis. Conditions: phosphate buffer pH 6.8, 37° C. The class given is physicochemical. The procedure:
Compound I, Compound U/Kollidon® VA 64 solid dispersion prepared according to Example 1, and Compound U/Soluplus® solid dispersion prepared according to Example 1 were dissolved in phosphate buffer (pH=6.8) and the resulting mixtures were agitated at 37° C. Samples were taken at 15 minutes, 30 minutes, 60 minutes, 120 minutes, 4 hours, 8 hours, and 24 hours.

The nature of data set [2]: Phase 1 randomized, open-label study in healthy subjects (PK, safety and tolerability). The class given is in vivo, human. The following applies: all treatment groups. The procedure: A Phase 1 randomized, open-label study was conducted in 16 healthy subjects. PK samples of Compound I were obtained up to 72 hours after single oral administration of: 1) 5-mg strength and 25-mg strength tablets (prepared according to Example 3) in 16 fasted subjects; 2) 25-mg strength capsule (containing 25 mg Compound I not in a solid dispersion) in 8 fasted subjects; and 3) 5-mg strength tablet (prepared according to Example 3) in 8 subjects after a high-fat, high calorie meal. Safety and tolerability of the tablets and capsule were also assessed.

Data set [3] in a line: BCS classification / aqueous solubility. The format is physicochemical.
Data set [4] is described as follows: Tissue distribution of Compound I (liver vs other tissues). The following applies: liver relative to plasma, kidney, lungs, heart, and skin, read-out: Concentration in the liver relative to other tissues. The format is in vivo.

For the compound `Cn1cc(C(=O)O)c2ccc(N3CCC(OCc4c(-c5c(Cl)cccc5Cl)noc4C4CC4)CC3)cc21` [Compound I, 6-(4-((5-cyclopropyl-3-(2,6-dichlorophenyl)isoxazol-4-yl)methoxy)piperidin-1-yl)-1-methyl-1H-indole-3-carboxylic acid], in data set [1], the “Solubility in phosphate buffer (in words)” value is recorded as “low solubility”. Besides, the “Concentration of Compound I” value in data set [1] (15 min) was 0.086 µg/mL; in data set [1] (30 min), 0.166 µg/mL; in data set [1] (60 min) it was 0.172 µg/mL; in data set [1] (120 min), 0.188 µg/mL; in data set [1] (4 hrs), 0.166 µg/mL; in data set [1] (8 hrs) it was 0.207 µg/mL. Also, the “Concentration of Compound I” value in data set [1] (24 hrs) was 0.250 µg/mL. Moreover, the Safety and tolerability result in data set [2] was “safe and well tolerated”. Moreover, in data set [3], the “Aqueous solubility (in words)” value was “low aqueous solubility”. In data set [3], the BCS class result is on record as “BCS class II”. Moreover, in data set [4], the Kp is ~20.
